This note sets out measurements from ChEMBL document CHEMBL3045453, “Novel malyngamide structural analogs: synthesis and biological evaluation” (Med Chem Res, 2013).

Bounds are passed on as bounds.

A word on the IC50: it is the point on the concentration scale where inhibition reaches its midpoint.

Common to all, as to type: functional, cell-based
One test has as its system HOP-62. The test is described as follows: Cytotoxicity against Homo sapiens (human) HOP62 cells assessed as growth inhibition after 48 hr by trypan blue exclusion assay. As to conditions: HOP-62, 48 h.
The next test concerns SW-620. Briefly: Cytotoxicity against Homo sapiens (human) SW620 cells assessed as growth inhibition after 48 hr by trypan blue exclusion assay. Particulars: SW-620, 48 h.
Test [1] is described as follows: Cytotoxicity against Homo sapiens (human) 502713 cells assessed as growth inhibition after 48 hr by trypan blue exclusion assay. Particulars: Homo sapiens, 502713, 48 h.
The subject of another test is SK-N-SH. Briefly: Cytotoxicity against Homo sapiens (human) SK-N-SH cells assessed as growth inhibition after 48 hr by trypan blue exclusion assay.
The next test deals with HeLa. Briefly: Cytotoxicity against Homo sapiens (human) HeLa cells assessed as growth inhibition after 48 hr by trypan blue exclusion assay.
For another test, the system named is PC-3. The test is described as follows: Cytotoxicity against Homo sapiens (human) PC3 cells assessed as growth inhibition after 48 hr by trypan blue exclusion assay. Particulars: PC-3, 48 h.
Another test deals with IMR-32. The test is described as follows: Cytotoxicity against Homo sapiens (human) IMR32 cells assessed as growth inhibition after 48 hr by trypan blue exclusion assay. Particulars: IMR-32, 48 h.
For another test, the system named is SF-295. Briefly: Cytotoxicity against Homo sapiens (human) SF295 cells assessed as growth inhibition after 48 hr by trypan blue exclusion assay. Particulars: SF-295, 48 h.

Regarding `CCCCCCC[C@H](C/C=C/CCC(=O)N1CCCCC1)OC`, the IC50 with HOP-62 was more than 100 µM; in the test on SW-620 it was more than 100 µM; in test [1], more than 100 µM; with SK-N-SH, 118 µM; in the test on HeLa, more than 100 µM; in the test with PC-3, more than 100 µM. Further, the IC50 in the test with IMR-32 and in the test with SF-295 was more than 100 µM in each case.
Regarding `CCCCCCC[C@@H](C/C=C/CCC(=O)NCc1ccccc1)OC`, the IC50 (in the test on HOP-62; in the test with SW-620; in test [1]; with SK-N-SH; in the test on HeLa; with PC-3) was more than 100 µM each time. Further, the IC50 with IMR-32 and in the test with SF-295 was more than 100 µM throughout.
Take `CCCCCCC[C@@H](C/C=C/CCC(=O)NCC(C)C)OC`: the IC50 (in the test on HOP-62; with SW-620; in test [1]; in the test on SK-N-SH; in the test on HeLa; in the test with PC-3) was more than 100 µM throughout. Besides, the IC50 in the test with IMR-32 and in the test on SF-295 was more than 100 µM in each case.
As to `CCCCCCC[C@@H](C/C=C/CCC(=O)NCc1ccc(F)cc1)OC`, the half-maximal inhibitory concentration (IC50) (in the test with HOP-62; in the test with SW-620; in test [1]; in the test on SK-N-SH; with HeLa; in the test on PC-3) was more than 100 µM each time. The IC50 with IMR-32 and with SF-295 was more than 100 µM in each case.
With `CCCCCCC[C@@H](C/C=C/CCC(=O)NCc1ccc(C(F)(F)F)cc1)OC`, the IC50 with HOP-62 is more than 100 µM; with SW-620, more than 100 µM; in test [1], 29.8 µM; in the test with SK-N-SH, 62.9 µM; in the test with HeLa it was more than 100 µM; with PC-3, more than 100 µM. The IC50 in the test with IMR-32 and in the test on SF-295 was more than 100 µM throughout.
On to `CCCCCCC[C@@H](C/C=C/CCC(=O)Nc1c(OC)cc(Cl)cc1OC)OC`, for which the IC50 in the test with HOP-62 was more than 100 µM; in the test with SW-620 it was more than 100 µM; in test [1] it was 64.1 µM; in the test on SK-N-SH it was more than 100 µM; in the test with HeLa it was more than 100 µM; in the test on PC-3 it was more than 100 µM. Moreover, the IC50 in the test with IMR-32 and in the test on SF-295 was more than 100 µM in each case.
For `CCCCCCC[C@H](O)C/C=C/CCC(=O)NCC(C)C`, the 50% inhibitory concentration (IC50) (with HOP-62; in the test with SW-620; in test [1]; with SK-N-SH; in the test on HeLa; in the test with PC-3) was more than 100 µM each time. The IC50 in the test with IMR-32 and in the test with SF-295 was more than 100 µM throughout.
In the case of `CCCCCCC[C@@H](C/C=C/CCC(=O)N1CCCC1)OC`, the IC50 (in the test with HOP-62; with SW-620; in test [1]; in the test on SK-N-SH; with HeLa; in the test with PC-3) was more than 100 µM in each case. Further, the IC50 in the test with IMR-32 and in the test on SF-295 was more than 100 µM throughout.
For the molecule `CCCCCCC[C@@H](C/C=C/CCC(=O)NCc1ccc(OC)cc1)OC`, the IC50 (in the test with HOP-62; with SW-620; in test [1]; in the test on SK-N-SH; in the test on HeLa; with PC-3) was more than 100 µM in each case. Further, the IC50 in the test on IMR-32 and with SF-295 was more than 100 µM each time.
For `CCCCCCC[C@@H](C/C=C/CCC(=O)NCCc1ccccc1)OC` [HERMITAMIDE A], the IC50 (in the test with HOP-62; with SW-620; in test [1]; with SK-N-SH; with HeLa; in the test on PC-3) was more than 100 µM in each case. In addition, the IC50 in the test on IMR-32 and with SF-295 was more than 100 µM throughout.
Regarding `CCCCCCC[C@H](C/C=C/CCC(=O)NCCc1ccccc1)OC` [PHENETHYL(7R,4E)-METHOXYTETRADECENAMIDE], the IC50 in the test on HOP-62 was more than 100 µM; in the test with SW-620, more than 100 µM; in test [1], more than 100 µM; with SK-N-SH, 95.8 µM; with HeLa, more than 100 µM; in the test on PC-3, more than 100 µM. The IC50 with IMR-32 and in the test on SF-295 was more than 100 µM throughout.
For `CCCCCCC[C@H](O)C/C=C/CCC(=O)N1CCCC1`, the IC50 was more than 100 µM with HOP-62; more than 100 µM in the test with SW-620; more than 100 µM in test [1]; 120 µM in the test with SK-N-SH; more than 100 µM in the test with HeLa; more than 100 µM with PC-3. Further, the IC50 in the test on IMR-32 and in the test on SF-295 was more than 100 µM in each case.
On to `CCCCCCC[C@H](C/C=C/CCC(=O)NCC(C)C)OC`, for which the IC50 (with HOP-62; in the test with SW-620; in test [1]; in the test with SK-N-SH; in the test on HeLa; in the test on PC-3) was more than 100 µM each time. Moreover, the IC50 in the test on IMR-32 and with SF-295 was more than 100 µM in each case.
On to `CCCCCCC[C@@H](C/C=C/CCC(=O)Nc1ccc(Br)cc1)OC`, for which the IC50 in the test on HOP-62 was 174 µM; in the test on SW-620, more than 100 µM; in test [1] it was more than 100 µM; with SK-N-SH, 65.7 µM; in the test with HeLa, more than 100 µM; in the test on PC-3, more than 100 µM. The IC50 with IMR-32 and in the test on SF-295 was more than 100 µM throughout.
Turning to `CCCCCCC[C@H](O)C/C=C/CCC(=O)N1CCCCC1`, the IC50 with HOP-62 is more than 100 µM; in the test on SW-620, more than 100 µM; in test [1] it was more than 100 µM; with SK-N-SH, 100 µM; in the test on HeLa it was more than 100 µM; in the test with PC-3, more than 100 µM. In addition, the IC50 with IMR-32 and in the test on SF-295 was more than 100 µM each time.
Turning to `CCCCCCC[C@H](O)C/C=C/CCC(=O)NCCc1ccccc1`, the IC50 in the test with HOP-62 is more than 100 µM; in the test with SW-620 it was more than 100 µM; in test [1] it was more than 100 µM; in the test with SK-N-SH, 164 µM; in the test on HeLa it was more than 100 µM; in the test with PC-3, more than 100 µM. The IC50 in the test with IMR-32 and with SF-295 was more than 100 µM each time.
With `CCCCCCC[C@H](C/C=C/CCC(=O)N1CCCC1)OC`, the IC50 (with HOP-62; in the test on SW-620; in test [1]; in the test on SK-N-SH; with HeLa; in the test on PC-3) was more than 100 µM each time. The IC50 in the test with IMR-32 and in the test on SF-295 was more than 100 µM each time.
For `CCCCCCC[C@@H](C/C=C/CCC(=O)Nc1ccc(Cl)cc1)OC`, the IC50 with HOP-62 is more than 100 µM; with SW-620, more than 100 µM; in test [1], more than 100 µM; with SK-N-SH, 72.9 µM; in the test with HeLa, more than 100 µM; in the test with PC-3, more than 100 µM. For the same molecule, the IC50 with IMR-32 and in the test on SF-295 was more than 100 µM in each case.
As for `CCCCCCC[C@@H](C/C=C/CCC(=O)N1CCCCC1)OC`, the IC50 (in the test with HOP-62; in the test with SW-620; in test [1]; in the test with SK-N-SH; in the test on HeLa; in the test with PC-3) was more than 100 µM in each case. The IC50 in the test on IMR-32 and in the test on SF-295 was more than 100 µM in each case.
